How the values were obtained:
[1] = total body weight of mice during treatment; type: in vivo, mouse; conditions: relative to weight at the beginning of the experiment; 20 mg/kg twice a day
Text: The total weight of the mice was also monitored every other day during the course of the treatment with F16.

[2] = level of F16 in serum of mice by fluorescence; type: in vivo, mouse; conditions: 12.5 or 25 mg/kg intraperitoneally
Method: To determine the levels of F16 present in the blood of mice after injection of F16, two mice were injected intraperitoneally with 25 mg/kg F16 and two mice were injected intraperitoneally with 12.5 mg/kg of F16. […] 40-50 μL of blood was obtained from the tail vein of the mice and placed into tubes incubated in ice and containing Heparin to a final concentration of 20U/mL of blood. Samples were centrifuged at 6,000 rpm for 3 minutes in the cold room. Serum was transfered to a clean tube and stored at −70° C. until further processing. 2 μL of serum samples were spotted onto Whatman paper, alongside with dilutions of F16 as a standard. Since F16 is a fluorescent compound (see below), the presence of F16 was deteremined by measuring its fluorescence emission using the Storm 860 (Molecular Dynamics). The concentration of F16 in serum samples was estimated by visual comparison to the intensity of the standard.

[3] = FACS analysis of F16 in tumor cell populations; type: in vivo, mouse; conditions: tumors of F16-treated nude mice
Method: Several tumor cell populations from F16 treated and untreated mice were analyzed by FACS, in order to determine the presence of F16 in the cells.

[4] = tested on: ras- and neu-initiated tumor cell lines; assay: uptake/retention of F16 by fluorescence microscopy; type: cell-based, mouse; conditions: 3 μM F16, 24 hours
Method: (§1) The following cell lines were used in this Example: EpH4-A6 (Neu^T); EpH4-EV; Neu-initiated mouse tumor cell lines NF980, NAF and nNeu; Ras-initated tumor cell lines SH1.1 and AC816; a Myc-initiated tumor cell line 16MB9a; and normal mammary epethileal cells HC11, NuMg and EpH4. The cells were grown on 60 mm plates and incubated with medium alone or medium containing 3 μM F16 for 24 hours at 37° C. The fluorescence signal of F16 was visualized under inverted microscope Axiovert (Zeiss) using a standard fluorescein filter set. Cells were photographed using a digital camera D1 (Nikon).

EpH4-A6 cells = assay: uptake/retention of F16 by fluorescence microscopy; type: cell-based, mouse; conditions: 3 μM F16, 24 hours
Method: as §1

16MB9a = assay: uptake/retention of F16 by fluorescence microscopy; type: cell-based, mouse; conditions: 3 μM F16, 24 hours
Method: as §1

EpH4-EV cells = assay: uptake/retention of F16 by fluorescence microscopy; type: cell-based, mouse; conditions: 3 μM F16, 24 hours
Method: as §1

[5] = tested on: isolated mouse liver mitochondria; assay: mitochondrial membrane potential by F16 fluorescence; type: biochemical; conditions: 1 μM and 50 μM F16
Method: Mitochondria were isolated from liver of Balb/c7 mice by standard differential centrifugation, and resuspended in isolation buffer (0.2 M sucrose, 10 mM Tris-MOPS pH 7.4, 0.1 mM EGTA-Tris, 0.1% delipidated BSA) (Costantini et al. (1995) Toxicology (99) 77-88). Protein concentration was determined by Bradford assay. For swelling determination, changes in side scatter at 545±2.5 nm of a 0.5 mg/ml suspension of mitochondria in experimental buffer (125 mM KCl, 10 mM Tris-MOPS pH 7.4, 1 mM Pi, 5 mM glutamate, 2.5 mM malate, 10 μM EGTA-Tris, pH 7.4) were monitored by using LS-50B spectrofluorimeter. To monitor changes in mitochondrial membrane potential, the intrinsic potentiometric properties of F16 were used. Mitochondria (0.5 mg/ml) were incubated in experimental buffer with the indicated concentrations of F16 and changes in F16 fluorescence intensity were measured, using a LS-50B spectrofluorimeter at 25° C., with excitation and emission wavelengths set at 415±2.5 nm and 520±5 nm, respectively. All reactions were performed at 25° C. and the instrument was equipped with magnetic stirring.
The fluorescent properties of F16 were used for this purpose. It was determined whether the fluorescence of a 1 μM solution of F16 changed in response to mitochondrial energization and depolarization. […] Preincubation of mitochondria with the PTP inhibitor CsA only partially blunted this effect.

SMILES: C[n+]1ccc(/C=C/c2c[nH]c3ccccc23)cc1.[I-] [F16]
- average total body weight loss [1]: 3.3%
- F16 in blood 20 hours after the injection [2]: not detected
- time of the maximum level of F16 in the blood ([2]; FIG. 7): 1 to 3 h
- level of F16 in the blood at 7 hours after the injection ([2]; compared to standard): nanomolar range
- maximum level of F16 in the blood ([2]; compared to standard): micromolar range
- presence of F16 in tumor cells (fluorescent signal, FACS) [3]: delivered to the tumor cell mass
- uptake/retention of F16 (fluorescence) [4]: very intense fluorescent green punctuated staining
- uptake/retention of F16 (fluorescence) (EpH4-A6 cells): very intense fluorescent green punctuated staining
- uptake/retention of F16 (fluorescence) (16MB9a): does not show fluoresence
- uptake/retention of F16 (fluorescence) (EpH4-EV cells): do not show any uptake/retention
- mitochondrial depolarization [5]: directly causes mitochondrial depolarization

From US20040097408A1, “Compounds regulating cell proliferation and differentiation” (priority 2001, published 2004)
